Results on 3 compounds are retold here after PMC5967867, “An NMDAR positive and negative allosteric modulator series share a binding site and are interconverted by methyl groups” (eLife, 2018).

In general, IC50 refers to the concentration needed to halve the response being measured. As usually defined, the EC50 is the concentration that produces a half-maximal response. For orientation: kon means the second-order rate constant of association. Broadly, the koff is the rate constant with which the complex falls apart. Broadly, the Kd is the free concentration of one partner at which half of the binding sites on the other are occupied at equilibrium, for simple one-to-one binding.

“And” between values parts separate entries of the source, which are not always exact repeats. Identical values can stand only once. Like-named read-outs stand apart in the source and are kept apart here. Marks after values point to notes of the source that are not given here.

One test deals with GluN1/GluN2D NMDARs (Rattus norvegicus, UniProt P35439+Q62645). As to the kind of experiment: Two-electrode voltage-clamp recordings, Xenopus laevis oocytes expressing GluN1/GluN2D. It counts as cell-based. The settings on record: for Emax: read-out: Maximal Degree of Modulation (% of control). As for the experimental part:
cDNAs for rat wild type NMDAR subunits GluN1-1a (GenBank U11418, U08261; hereafter GluN1 or GluN1a), GluN1-1b (U08263, hereafter GluN1b), GluN2A (D13211), GluN2B (U11419), Glu[…]), and Glu[…], modified as described in [Monyer et al., 1994]) were provided by Drs. S. Heinemann (Salk Institute), S. Nakanishi (Kyoto University), and P. Seeburg (University of Heidelberg). Site-directed mutagenesis was conducted using the QuikChange kit (Agilent Technologies, Santa Clara, CA) following the recommended protocol. DNA sequencing was used to verify all mutations. The amino acid numbering system started with the initiating methionine as residue number one. For expression in Xenopus laevis oocytes, cDNA constructs were linearized by restriction enzymes, and subsequently used to synthesize in vitro cRNAs following the manufacturer's protocol (mMessage mMachine, Ambion, ThermoFisher Scientific, Waltham, MA). […] All extracellular solutions were made from a solution containing (in mM) 90 NaCl, 1 KCl, 10 HEPES, 0.5 BaCl2, 0.01 EDTA (pH 7.4 with NaOH). Experiments were performed using an eight port Modular Valve Positioner (Hamilton Company, Reno, NV) and controlled by custom software (Easy Oocyte, Emory University, Atlanta, GA)to exchange solutions. Oocyte currents were recorded at a holding potential of -40 mV using a two-electrode voltage-clamp amplifier (OC-725B or OC-725C, Warner Instruments, Hamden, CT). […] Measurements are given as mean ± SEM unless otherwise indicated. […] EC50 and IC50 values and confidence intervals reported were calculated by averaging the log(EC50) or log(IC50) value, determining confidence intervals for mean log(EC50) or log(IC50), and converting back to units of molarity. Statistical significance evaluations (α set to 0.05) were performed using a one-way ANOVA with Dunnett's multiple comparison test, a paired t-test, or other appropriate tests as described.
On the technique in general: Two-electrode voltage clamp is typically applied to oocytes expressing channels or transporters.

A further test has as its target GluN1/GluN2A NMDARs (Rattus norvegicus, UniProt P35439+Q00959). As to the kind of experiment: Whole cell patch-clamp recordings, HEK293 cells expressing GluN1/GluN2A. It counts as cell-based. The settings on record: for modulation of high desensitized steady state responses / modulation of low desensitized steady state responses (drug/control): 10 µM, 100/30 µM glutamate/glycine; for modulation of high desensitized steady state responses / modulation of low desensitized steady state responses (drug/control) / Kd: HEK cells; for kon / koff: HEK293; for kon: read-out: association rate kon; for koff: read-out: dissociation rate koff; for Kd: calculated from association and dissociation rates, read-out: kinetically-determined affinity constant Kd. As for the experimental part: We studied NMDARs expressed in HEK293 cells to investigate the time course of modulator action. […] These modulators were tested on GluN1/GluN2A and GluN1/GluN2D to see whether there were differences in modulation given the distinct properties of these NMDAR subtypes. […] From these we calculated the kinetically-determined affinity constant (Kd), which we found to be similar to the EC50 values determined from concentration-response experiments. […] Complex actions of EU1794-4 and EU1794-27 were observed, with two temporally-distinct phases of modulation evident for the association of these modulators (Figure 4A). Both compounds produced a rapid inhibition followed by a slowly developing potentiating phase for EU1794-27. The rapid association rate determined during the rapid inhibition produced by EU1794-4 was approximately three times faster than EU1794-2; similarly, the dissociation rate was also faster for EU1794-4 than EU1794-2. Quantitative analysis of the slower phases was challenging due to its lower signal-to-noise ratio. Likewise, the rapid inhibitory phase was also difficult to measure for EU1794-27 because its rapid time course was convolved with the potentiation time course. Additionally, the depotentiation time course is preceded by a transient enhancement of the current response, followed by a relaxation to the pre-modulation level. The time course for potentiation and depotentiation were best fit with an exponential function summed with an additional linear component after the rapid phase subsided. […] All modulatory effects were independent of voltage (Figure 4—figure supplement 1A). The steady state modulator responses from HEK293 cells approximately match the concentration-response relationship determined from TEVC recordings from X. laevis oocytes (Figure 4A, inset graphs). The time-course of modulator binding of EU1794-2, EU1794-4 and EU1794-27 was also determined for GluN1/GluN2A (Figure 4C,D). Higher Kd values (lower potency) were determined for each molecule at GluN1/GluN2A as compared to GluN1/GluN2D that parallel EC50 values determined using X. laevis oocytes. Similar to oocyte data, robust inhibition was produced by EU1794-2, modest inhibition was produced by EU1794-4, and transient inhibition and recovery was observed by the application of EU1794-27. […] The low desensitized group (40% average desensitization) was modulated by 107%, whereas the high desensitized group (10% average desensitization) was modulated to 247% of control by 10 µM EU1794-27 (Figure 4C and Figure 4—figure supplement 1F).
cDNAs for rat wild type NMDAR subunits GluN1-1a (GenBank U11418, U08261; hereafter GluN1 or GluN1a), GluN1-1b (U08263, hereafter GluN1b), GluN2A (D13211), GluN2B (U11419), GluN2C (M91563), and GluN2D (L31611, modified as described in [Monyer et al., 1994]) were provided by Drs. S. Heinemann (Salk Institute), S. Nakanishi (Kyoto University), and P. Seeburg (University of Heidelberg). Site-directed mutagenesis was conducted using the QuikChange kit (Agilent Technologies, Santa Clara, CA) following the recommended protocol. DNA sequencing was used to verify all mutations. The amino acid numbering system started with the initiating methionine as residue number one. For expression in Xenopus laevis oocytes, cDNA constructs were linearized by restriction enzymes, and subsequently used to synthesize in vitro cRNAs following the manufacturer’s protocol (mMessage mMachine, Ambion, ThermoFisher Scientific, Waltham, MA).
HEK293 cells (CRL-1573, ATCC, Manassas, VA) were maintained in a tissue culture room solely reserved for their culturing and transfected using a CaPO4 protocol to express the diheteromeric NMDARs as previously described ([Hansen et al., 2013]). Cell lines were obtained directly from the supplier, were expanded, frozen and kept in liquid nitrogen in a dewar. Mycoplasma testing was not performed. cDNA ratios for transfection were 1:1:1 (GluN2D) or 1:1:5 (GluN2A) for GluN1:GluN2:GFP. […]

The mark [1] stands for this setting: glutamate/glycine 100/30 µM, no second modulator (+EU1794-27 0 µM), read-out: IC50 (µM) [conf. int.].
Setting [2] is: saturating glutamate/glycine 100/30 µM, mean [95% CI], read-out: EC50 (µM) [conf. int.].
The mark [3] stands for this setting: saturating glutamate/glycine 100/30 µM, mean ± SEM.
Where [4] appears, read: sub-saturating glutamate/glycine 0.6/0.2 µM, read-out: EC50 (µM) [conf. int.].
[5] abbreviates: sub-saturating glutamate/glycine 0.6/0.2 µM.
[6] abbreviates: concentration dependence of linear component of time course.

GluN1/GluN2D NMDARs, sequence (Q62645 28-1323, other chains not shown): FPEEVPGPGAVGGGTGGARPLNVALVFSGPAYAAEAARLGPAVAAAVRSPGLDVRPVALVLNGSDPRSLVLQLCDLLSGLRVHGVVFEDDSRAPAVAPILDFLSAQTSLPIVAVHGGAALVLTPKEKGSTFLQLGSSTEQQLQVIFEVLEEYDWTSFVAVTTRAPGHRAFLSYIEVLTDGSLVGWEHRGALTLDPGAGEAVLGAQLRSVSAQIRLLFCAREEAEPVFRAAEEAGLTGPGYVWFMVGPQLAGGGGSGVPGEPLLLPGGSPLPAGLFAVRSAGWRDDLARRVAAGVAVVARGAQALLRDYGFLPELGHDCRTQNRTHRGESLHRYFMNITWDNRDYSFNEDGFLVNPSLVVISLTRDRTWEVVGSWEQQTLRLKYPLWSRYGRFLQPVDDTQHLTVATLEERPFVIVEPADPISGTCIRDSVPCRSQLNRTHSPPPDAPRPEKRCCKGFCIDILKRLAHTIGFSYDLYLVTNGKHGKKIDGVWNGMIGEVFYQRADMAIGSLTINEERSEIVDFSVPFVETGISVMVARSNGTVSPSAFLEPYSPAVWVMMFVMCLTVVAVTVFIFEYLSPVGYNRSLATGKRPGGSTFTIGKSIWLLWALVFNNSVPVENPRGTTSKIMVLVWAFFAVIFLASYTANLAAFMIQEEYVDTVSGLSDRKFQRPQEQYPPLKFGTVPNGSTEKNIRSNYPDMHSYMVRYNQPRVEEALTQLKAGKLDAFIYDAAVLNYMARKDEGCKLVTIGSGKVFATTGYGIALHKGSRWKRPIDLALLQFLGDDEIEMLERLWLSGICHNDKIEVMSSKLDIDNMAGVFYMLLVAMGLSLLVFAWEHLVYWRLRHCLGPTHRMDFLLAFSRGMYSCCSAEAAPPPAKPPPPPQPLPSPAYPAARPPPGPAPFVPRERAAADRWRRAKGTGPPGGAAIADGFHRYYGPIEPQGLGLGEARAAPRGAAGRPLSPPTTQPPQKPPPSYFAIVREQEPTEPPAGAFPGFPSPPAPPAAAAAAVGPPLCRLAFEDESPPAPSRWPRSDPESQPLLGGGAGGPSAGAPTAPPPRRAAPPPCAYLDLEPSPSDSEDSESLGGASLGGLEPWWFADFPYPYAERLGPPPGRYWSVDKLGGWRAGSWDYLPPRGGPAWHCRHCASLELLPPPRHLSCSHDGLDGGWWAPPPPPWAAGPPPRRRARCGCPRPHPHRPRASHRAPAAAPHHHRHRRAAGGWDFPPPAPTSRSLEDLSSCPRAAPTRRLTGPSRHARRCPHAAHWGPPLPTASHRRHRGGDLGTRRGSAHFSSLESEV
GluN1/GluN2A NMDARs, sequence (Q00959 23-1464, other chains not shown): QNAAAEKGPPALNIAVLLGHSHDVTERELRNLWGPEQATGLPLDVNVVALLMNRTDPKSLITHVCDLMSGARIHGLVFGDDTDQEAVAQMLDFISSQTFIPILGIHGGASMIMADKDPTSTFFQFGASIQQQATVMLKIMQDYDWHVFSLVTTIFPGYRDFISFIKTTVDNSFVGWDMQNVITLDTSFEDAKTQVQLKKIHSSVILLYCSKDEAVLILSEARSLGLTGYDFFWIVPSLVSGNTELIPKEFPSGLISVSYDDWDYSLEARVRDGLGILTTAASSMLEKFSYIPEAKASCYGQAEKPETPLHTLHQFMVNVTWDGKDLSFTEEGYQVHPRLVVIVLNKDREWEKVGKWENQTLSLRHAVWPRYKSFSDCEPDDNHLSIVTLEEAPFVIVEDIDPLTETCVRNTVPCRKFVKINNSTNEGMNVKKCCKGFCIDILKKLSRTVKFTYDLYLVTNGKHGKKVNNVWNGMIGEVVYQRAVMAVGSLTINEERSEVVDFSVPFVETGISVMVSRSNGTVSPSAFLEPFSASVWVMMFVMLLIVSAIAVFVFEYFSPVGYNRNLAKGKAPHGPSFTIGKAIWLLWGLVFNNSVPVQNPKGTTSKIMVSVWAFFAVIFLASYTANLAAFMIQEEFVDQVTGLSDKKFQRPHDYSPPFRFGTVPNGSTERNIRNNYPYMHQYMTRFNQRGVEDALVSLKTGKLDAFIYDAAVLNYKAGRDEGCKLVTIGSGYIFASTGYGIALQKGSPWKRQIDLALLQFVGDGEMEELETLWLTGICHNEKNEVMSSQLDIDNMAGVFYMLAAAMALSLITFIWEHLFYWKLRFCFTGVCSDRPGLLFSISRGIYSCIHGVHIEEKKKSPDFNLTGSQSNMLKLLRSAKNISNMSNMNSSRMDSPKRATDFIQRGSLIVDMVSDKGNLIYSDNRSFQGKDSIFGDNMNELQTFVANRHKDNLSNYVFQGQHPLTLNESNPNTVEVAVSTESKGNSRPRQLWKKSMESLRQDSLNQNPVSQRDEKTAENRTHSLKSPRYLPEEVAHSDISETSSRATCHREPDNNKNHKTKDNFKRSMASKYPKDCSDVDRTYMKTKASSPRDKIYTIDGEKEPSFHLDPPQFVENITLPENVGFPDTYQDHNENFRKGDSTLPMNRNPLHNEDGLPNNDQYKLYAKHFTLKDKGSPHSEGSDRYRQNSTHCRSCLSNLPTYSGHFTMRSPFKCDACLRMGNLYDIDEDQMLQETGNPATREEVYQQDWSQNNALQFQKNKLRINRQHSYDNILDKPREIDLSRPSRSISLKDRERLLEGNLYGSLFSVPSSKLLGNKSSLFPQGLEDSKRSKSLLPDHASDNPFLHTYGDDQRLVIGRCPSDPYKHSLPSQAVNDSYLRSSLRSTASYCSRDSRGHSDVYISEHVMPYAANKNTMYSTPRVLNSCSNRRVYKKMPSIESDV

As for `CCOC(=O)c1c(NC(=O)CC2SC(=N)NC2=O)sc2c1CCC(C)C2` (stereo not drawn) [EU1794-2, ethyl 2-(2-(2-imino-4-oxothiazolidin-5-yl)acetamido)-6-methyl-4,5,6,7-tetrahydrobenzo[b]thiophene-3-carboxylate], the half-inhibitory concentration (IC50) at GluN1/GluN2D NMDARs (+EU1794-27 3 µM, glutamate/glycine 100/30 µM, read-out: EU1794-2 IC50 (µM) [conf. int.]) amounted to 1.4 µM; at GluN1/GluN2D NMDARs (+EU1794-27 10 µM, glutamate/glycine 100/30 µM, read-out: EU1794-2 IC50 (µM) [conf. int.]) it was 2.7 µM; at GluN1/GluN2D NMDARs (+EU1794-27 20 µM, glutamate/glycine 100/30 µM, read-out: EU1794-2 IC50 (µM) [conf. int.]) it was 7.3 µM; at GluN1/GluN2D NMDARs (setting [1]), 0.2 µM. Also, the values for the EC50 at GluN1/GluN2D NMDARs (setting [2]) and at GluN1/GluN2D NMDARs (setting [4]) were 0.2 µM and 0.32 µM, respectively. Moreover, the Emax worked out at 14% at GluN1/GluN2D NMDARs (setting [3]) and 24% on GluN1/GluN2D NMDARs (setting [5]). For the same compound, the “modulation of high desensitized steady state responses” value at GluN1/GluN2A NMDARs is 32 % of control. In addition, on GluN1/GluN2A NMDARs, the “modulation of low desensitized steady state responses (drug/control)” value (“modulation … (drug/control)” below) is on record as 13 % of control. For the same compound, the kon on GluN1/GluN2A NMDARs worked out at 390000 M⁻¹ s⁻¹. Further, the koff on GluN1/GluN2A NMDARs is 0.938 s⁻¹. Moreover, at GluN1/GluN2A NMDARs, the Kd is 2410 nM.

For the compound `CCOC(=O)c1c(NC(=O)CC2SC(=N)NC2=O)sc2c1CCCC2` (stereo not drawn) [EU1794-4, ethyl 2-(2-(2-imino-4-oxothiazolidin-5-yl)acetamido)-4,5,6,7-tetrahydrobenzo[b]thiophene-3-carboxylate], at GluN1/GluN2D NMDARs (control vs 10 µM EU1794-4), the “Fold Difference (glutamate EC50)” value is 3.9^† and the “Fold Difference (glycine EC50)” value is listed as 8.9^†. Moreover, the half-inhibitory concentration (IC50) on GluN1/GluN2D NMDARs (setting [1]) amounted to 0.36 µM. Also, at GluN1/GluN2D NMDARs (setting [2]), the EC50 was found to be 0.36 µM. Also, the Emax at GluN1/GluN2D NMDARs (setting [3]) worked out at 51%. Moreover, the EC50 at GluN1/GluN2D NMDARs (sub-saturating glutamate/glycine 0.3/0.09 µM, read-out: EC50 (µM) [conf. int.]) was found to be 14 µM. On GluN1/GluN2D NMDARs (sub-saturating glutamate/glycine 0.3/0.09 µM), the Emax came out at 540%. At GluN1/GluN2A NMDARs, the “modulation … (drug/control)” value was 47 % of control, the kon was 502000 M⁻¹ s⁻¹, the koff was found to be 3.94 s⁻¹ and the Kd is 7850 nM.

Consider `CC(C)(C)OC(=O)c1c(NC(=O)CC2SC(=N)NC2=O)sc2c1CCCC2` (stereo not drawn) [EU1794-27, tert-butyl 2-(2-(2-imino-4-oxothiazolidin-5-yl)acetamido)-4,5,6,7-tetrahydrobenzo[b]thiophene-3-carboxylate], for which the 50% effective concentration (EC50) at GluN1/GluN2D NMDARs (+EU1794-2 1 µM, glutamate/glycine 100/30 µM, read-out: EU1794-27 EC50 (µM) [conf. int.]) came to 7.5 µM. In addition, the EC50 on GluN1/GluN2D NMDARs (+EU1794-2 3 µM, glutamate/glycine 100/30 µM, read-out: EU1794-27 EC50 (µM) [conf. int.]) was determined as 7.8 µM. Also, on GluN1/GluN2D NMDARs (control vs 10 µM EU1794-27), the “Fold Difference (glutamate EC50)” value was 5.3^† and the “Fold Difference (glycine EC50)” value is 4.9^†. For the same compound, the concentration for a half-maximal effect (EC50) at GluN1/GluN2D NMDARs (setting [2]) was 2.4 µM. The Emax on GluN1/GluN2D NMDARs (setting [3]) was determined as 250%. Moreover, on GluN1/GluN2D NMDARs (setting [4]), the EC50 was determined as 8.3 µM. Moreover, on GluN1/GluN2D NMDARs (setting [5]), the Emax was 580%. Further, on GluN1/GluN2A NMDARs, the “modulation of high desensitized steady state responses” value is 247 % of control and 247 ± 31 % of control; the “modulation … (drug/control)” value is 107 % of control and 107 ± 16 % of control; the on-rate (kon) is 59200 M⁻¹ s⁻¹; the koff worked out at 0.426 s⁻¹. Besides, on GluN1/GluN2A NMDARs, the Kd was 7200 nM. At GluN1/GluN2A NMDARs (setting [6]), the “association linear component slope mon” value is −0.33 pA/(s*µM) and the “dissociation linear component slope moff” value was 0.16 pA/(s*µM).
